Assay results published in US20240174690A1, “ANNULATED 2-AMINO-3-CYANO THIOPHENES AND DERIVATIVES FOR THE TREATMENT OF CANCER” (BOEHRINGER INGELHEIM INTERNATIONAL GMBH, priority 2021, published 2024).
Values after ≈ are worked out from the molar mass of the structure shown. Read-outs that look alike come from different tables or passages of the source.

How the values were obtained:
NCI-H358 cells = assay: NCI-H358 CTG proliferation assay (120 h) (NSCLC, G12C); assay type: cell-based, human; settings: Homo sapiens, assay 2, CTG, read-out: H358 (assay 2) IC50
Experimental: NCI-H358 CTG Proliferation Assay (120 h) (NSCLC, G12C)
NCI-H358 cells (ATCC No. CRL-5807) are dispensed into white bottom opaque 96 well plates (Perkin Elmer cat no. 5680) at a density of 2000 cells per well in 100 μL RPMI-1640 ATCC-Formulation (Gibco #A10491)+10% FCS (fetal calf serum) (assay 1) or into black 384-well plates, flat and clear bottom (Greiner, PNr. 781091) at a density of 200 cells per well in 60 μl RPMI-1640 ATCC-Formulation (Gibco #A10491)+10% FCS (fetal calf serum) (assay 2). […] Compounds (10 mM stock in DMSO) are added at logarithmic dose series using the HP Digital Dispenser D300 (Tecan) (assay 1) or the ECHO acoustic liquid handler system (Beckman Coulter) (assay 2), normalizing for added DMSO and including DMSO controls. For the TO time point measurement, untreated cells are analyzed at the time of compound addition. Plates are incubated for 120 h, and cell viability is measured using CellTiter-Glo luminescent cell viability reagent (Promega product code G7570). Viability (stated as percent of control) is defined as relative luminescence units RLU of each well divided by the RLU of cells in DMSO controls. IC50 values are determined from viability measurements by non-linear regression using a four parameter model.

[1] = tested on: KRAS G12V-dependent Ba/F3 cells; assay: Ba/F3 proliferation assay, KRAS G12V; assay type: cell-based; settings: Mus musculus, BaF3, 72 h, AlamarBlue;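 further: proliferation IC50 in KRAS G12V-dependent Ba/F3 cells read by AlamarBlue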
Experimental: (§1) Plasmids containing KRASG12 mutants (i.e. […], G12C, G12V) are obtained from GeneScript. To generate KRASG12-dependent Ba/F3 models, Ba/F3 cells are transduced with retroviruses containing vectors that harbor KRASG12 isoforms. Platinum-E cells (Cell Biolabs) are used for retrovirus packaging. Retrovirus is added to Ba/F3 cells. To ensure infection, 4 μg/mL polybrene is added and cells are spinfected. […] Cells with an infection efficiency of 10% to 20% are further cultivated and puromycin selection with 1 μg/mL is initiated. As a control, parental Ba/F3 cells are used to show selection status. Selection is considered successful when parental Ba/F3 cells cultures died. To evaluate the transforming potential of KRASG12 mutations, the growth medium is no longer supplemented with IL-3. Ba/F3 cells harboring the empty vector are used as a control. Approximately ten days before conducting the experiments, puromycin is left out.
(§2) Compounds are added using an Access Labcyte Workstation with a Labcyte Echo 550 or 555 accoustic dispenser. All treatments are performed in technical duplicates. […] AlamarBlue™ (ThermoFisher), a viability stain, is added and fluorescence measured in the PerkinElmer Envision HTS Multilabel Reader. The raw data are imported into and analyzed with the Boehringer Ingelheim proprietary software MegaLab (curve fitting based on the program PRISM, GraphPad Inc.).

[2] = Plasma protein binding assay (PPB), equilibrium dialysis, 10% FCS in PBS; assay type: in vitro ADME; settings: bovine, read-out: PPB 10% FCS (% fu)
Experimental: Binding of test compounds to plasma was determined using equilibrium dialysis (ED) and quantitative mass spectrometry interfaced with liquid chromatography (LC-MS). In brief, ED was performed with dialysis devices consisting of two chambers separated by a semipermeable membrane with a molecular weight cut-off of 5-10 kg/mol. One chamber was filled with 10% FCS in PBS containing 1-10 μmol/L test compound and the other chamber was filled with phosphate-buffer saline (PBS) with or without dextran. The dialysis chamber was incubated for 3-5 hours at 37° C. After incubation, protein was precipitated from aliquots of each chamber and the concentration of test compound in the supernatant of the plasma-containing compartment (Cserum) and of the buffer-containing compartment (Cbuffer) was determined by LC-MS. The fraction of unbound test compound (not bound to plasma) (fu) was calculated according to the following equation: […]

[3] = tested on: KRAS G12C-dependent Ba/F3 cells; assay: Ba/F3 proliferation assay, KRAS G12C; assay type: cell-based; settings: Mus musculus, BaF3, 72 h, AlamarBlue
Experimental: as §1, §2

[4] = Metabolic (microsomal) stability assay, human liver microsomes (HLM); assay type: in vitro ADME; settings: predicted clearance as percent of liver blood flow, 1 μM
Experimental: The metabolic degradation of the test compound is assayed at 37° C. with pooled liver microsomes (mouse (MLM), rat (RLM) or human (HLM)). The final incubation volume of 48 μL pertime point contains TRIS buffer (pH 7.5; 0.1 M), magnesium chloride (6.5 mM), microsomal protein (0.5 mg/mL for mouse/rat, 1 mg/mL for human specimens) and the test compound at a final concentration of 1 μM. Following a short preincubation period at 37° C., the reactions are initiated by addition of 12 μL beta-nicotinamide adenine dinucleotide phosphate, reduced form (NADPH, 10 mM) and terminated by transferring an aliquot into solvent after different time points (0, 5, 15, 30, 60 min). Additionally, the NADPH-independent degradation is monitored in incubations without NADPH, terminated at the last time point by addition of acetonitrile. The quenched incubations are pelleted by centrifugation (4,000 rpm, 15 min). An aliquot of the supernatant is assayed by LC-MS/MS to quantify the concentration of parent compound in the individual samples.
In vitro intrinsic clearance (CLint, in vitro) is calculated from the time course of the disappearance of the test drug during the microsomal incubation. Each plot is fitted to the first-order elimination rate constant as C(t)═C0*exp(−ke*t), where C(t) and C0 are the concentration of unchanged test drug at incubation time t and that at preincubation and ke is the disappearance rate constant of the unchanged drug. Subsequently, CLint in vitro (μL min^−1·amount protein) values are converted to predicted CLint,in vivo (mL min^−1 kg^−1) from incubation parameters according to the equation CLint, in vivo=CLint, in vitro×(incubation volume (ml)/amount protein (mg))×(amount protein (mg)/g liver tissue)×(liver weight/body wt.).
For better across species comparison the predicted clearance is expressed as percent of the liver blood flow [% QH] (mL min^−1·kg^−1) in the individual species. In general, high stability (corresponding to low % QH) of the compounds across species is desired.

[5] = tested on: KRAS G12D-dependent Ba/F3 cells; assay: Ba/F3 proliferation assay, KRAS G12D; assay type: cell-based; settings: Mus musculus, BaF3, 72 h, AlamarBlue
Experimental: as §1, §2

KRAS (G12C)::SOS1 = KRAS (G12C)::SOS1 (Homo sapiens (Human), UniProt P01116, C118S/C51S/C80L/G12C); assay: KRAS::SOS1 AlphaScreen binding assay, KRAS G12C
Text: (§3) This assay can be used to examine the potency with which compounds according to the invention binding to (mutated) KRAS inhibit the protein-protein interaction between SOS1 and (mutated) KRAS e.g., KRAS WT, KRAS G12C, KRAS G12D, KRAS G12V, KRAS G13D. […] Low IC50 values in this assay setting are indicative of strong inhibition of protein-protein interaction between SOS1 and KRAS:
(§4) These assays measure the inhibitory effect of compounds on KRAS mutant protein-protein interactions using the Alpha Screen technology by Perkin Elmer.
(§5) The following (mutant) enzyme forms of KRAS and interacting proteins are used in these assays at the given concentrations: • KRAS (G12D) 1-169, N-terminal 6His-tag, C-terminal avi-tag (Xtal BioStructures, Inc.); final assay concentration 10 nM and SOS1 564-1049, N-terminal 229 GST-tag, TEV cleavage site (Viva Biotech Ltd); final assay concentration 5 nM; • KRAS (G12C) 1-169, N-terminal 6His-tag for purification, cleaved off, C-terminal avi-tag, biotinylated, mutations: C51S, C80L, C118S (in house); final assay concentration 7.5 nM and SOS1 564-1049, N-terminal 229 GST-tag, TEV cleavage site (Viva Biotech Ltd); final assay concentration 5 nM; • KRAS (G12V) 1-169, N-terminal 6His-tag for purification, cleaved off, C-terminal avi-tag, biotinylated, TEV cleavage site, mutation: C118S, GDP loaded (in house); final assay concentration 10 nM and SOS1 564-1049, N-terminal 229 GST-tag, TEV cleavage site (Viva Biotech Ltd); final assay concentration 10 nM; • KRAS (G13D) 1-169, N-terminal 6His-tag for purification, cleaved off, C-terminal avi-tag, biotinylated, TEV cleavage site, mutation: C118S, GDP loaded (in house); final assay concentration 10 nM and SOS1 564-1049, N-terminal 229 GST-tag, TEV cleavage site (Viva Biotech Ltd); final assay concentration 10 nM; • KRAS (WT) 1-169, N-terminal 6His-tag for purification, cleaved off, C-terminal avi-tag, biotinylated, TEV cleavage site, mutation: C118S, GDP loaded (in house); final assay concentration 10 nM and SOS1 564-1049, N-terminal 229 GST-tag, TEV cleavage site (Viva Biotech Ltd); final assay concentration 10 nM.
(§6) Test compounds dissolved in DMSO are dispensed onto assay plates (Proxiplate 384 PLUS, white, PerkinElmer; 6008289) using an Access Labcyte Workstation with the Labcyte Echo 55×. For the chosen highest assay concentration of 100 μM, 150 nL of compound solution are transferred from a 10 mM DMSO compound stock solution. A series of eleven fivefold dilutions per compound are transferred to the assay plate, compound dilutions are tested in duplicates. DMSO are added as backfill to a total volume of 150 nL.
(§7) The assays run on a fully automated robotic system in a darkened room below 100 Lux. To 150 nl of compound dilution 10 μl of a mix including KRAS mutant protein, SOS1 (final assay concentrations see above) and GDP nucleotide (Sigma G7127; final assay concentration 10 μM) in assay buffer (1×PBS, 0.1% BSA, 0.05% Tween 20) are added into columns 1-24.
(§8) After 30 minutes incubation time 5 μl of Alpha Screen bead mix in assay buffer are added into columns 1-23. Bead mix consists of AlphaLISA Glutathione Acceptor Beads (PerkinElmer, Cat No AL109) and AlphaScreen Streptavidin Donor Beads (PerkinElmer Cat No 6760002) in assay buffer at a final assay concentration of 10 μg/ml each.
(§9) Plates are kept at room temperature in a darkened incubator. After an additional 60 minutes incubation time the signal is measured in a PerkinElmer Envision HTS Multilabel Reader using the AlphaScreen specs from PerkinElmer.
(§10) Each plate contains up to 16 wells of a negative control depending on the dilution procedure (platewise or serial) (DMSO instead of test compound; with KRAS mutant::SOS1 GDP mix and bead mix; column 23) and 16 wells of a positive control (DMSO instead of test compound; with KRAS mutant::SOS1 GDP mix w/o bead mix; column 24).
(§11) As internal control known inhibitors of KRAS mutant::SOS1 interaction can be measured on each compound plate. […]

KRAS (G12D)::SOS1 = KRAS (G12D)::SOS1 (Homo sapiens (Human), UniProt P01116, G12D); assay: KRAS::SOS1 AlphaScreen binding assay, KRAS G12D
Text: as §3, §4, §5, §6, §7, §8, §9, §10, §11

[6] = Solubility measurement (DMSO solution method), McIlvaine buffer pH 4.5 or 6.8; assay type: physicochemical; settings: aqueous buffer, kinetic from dmso stock, DMSO stock diluted to 250 μM, 24 h shaking at ambient temperature
Experimental: The DMSO solution is diluted with an aqueous medium (Mcllvaine buffer with pH=4.5 or 6.8) to a final concentration of 250 μM. After 24 h of shaking at ambient temperature a potentially formed precipitate is removed by filtration. The concentration of the test compound in the filtrate is determined by LC-UV methods by calibrating the signal to the signal of a reference solution with complete dissolution of the test compound in acetonitrile/water (1:1) with known concentration.

KRAS (G12D)::SOS1, sequence (P01116 other isoform, or with tags, fused parts or gaps G12D): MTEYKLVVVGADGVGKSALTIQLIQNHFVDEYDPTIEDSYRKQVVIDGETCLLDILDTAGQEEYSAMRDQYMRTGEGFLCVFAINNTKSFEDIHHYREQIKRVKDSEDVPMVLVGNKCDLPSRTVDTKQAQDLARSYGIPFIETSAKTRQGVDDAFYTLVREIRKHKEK
KRAS (G12C)::SOS1, sequence (P01116 other isoform, or with tags, fused parts or gaps G12C/C51S/C80L/C118S): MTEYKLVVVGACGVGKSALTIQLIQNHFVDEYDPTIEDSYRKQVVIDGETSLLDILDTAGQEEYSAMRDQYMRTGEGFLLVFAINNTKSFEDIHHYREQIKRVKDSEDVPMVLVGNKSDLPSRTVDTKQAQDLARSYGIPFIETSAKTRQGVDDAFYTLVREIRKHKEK

Structure (SMILES)	IC50 (NCI-H358 cells)	IC50 [1]	fraction unbound [2]	IC50 [3]	HLM QH [4]	IC50 [5]	IC50 (KRAS (G12C)::SOS1)	IC50 (KRAS (G12D)::SOS1)	solubility at 24 h ([6]; McIlvaine buffer pH 4.5, read-out: solubility pH 4.5)	solubility at 24 h ([6]; McIlvaine buffer pH 6.8, read-out: solubility pH 6.8)
C[C@H](Oc1cc(-n2ccnn2)nc(-c2noc3c2CCC[C@@]32CCCc3sc(N)c(C#N)c32)n1)[C@@H]1CCCN1C [II-108]	134 nM	8 nM	0.42	15 nM	59%	54 nM	–	–	–	–
C[C@H](Oc1cc(N2CCN3CCC[C@]3(C)C2)nc(-c2noc3c2CCC[C@@]32CCCc3sc(N)c(C#N)c32)n1)[C@@H]1CCCN1C [II-52]	1720 nM	401 nM	0.48	403 nM	<24%	72 nM	–	–	–	–
C[C@H]1CN(C)CCCN1c1nc(-c2noc3c2CCC[C@@]32CCCc3sc(N)c(C#N)c32)cc(N2CCN(C)C3(CC3)C2)n1 [II-172]	–	–	–	830 nM	51%	–	888 nM	36 nM	–	–
Cc1cc(-c2onc3c2CCC[C@@]32CCCc3sc(N)c(C#N)c32)nc(N2CCCNC[C@@H]2C)n1 [I-35]	–	–	–	289 nM	32%	–	32 nM	21 nM	3 µg/mL (≈ 6.13 µM)	< 1 µg/mL
